According to ChEMBL document CHEMBL4725375, “Total synthesis and a systematic structure-activity relationship study of WAP-8294A2” (2020):
In brackets after ≈: the same amount, converted by molar mass.

Columns and labels:
[1] = system: Staphylococcus aureus; experiment: Antibacterial activity against Staphylococcus aureus ATCC 29213 by CLSI M07-A8 protocol based microdilution method; type: functional
[2] = system: Staphylococcus aureus; experiment: Antibacterial activity against methicillin-resistant Staphylococcus aureus SA86 by CLSI M07-A8 protocol based microdilution method; type: functional

Row | Structure (SMILES) | MIC [1] [mg/L] | MIC [2] [mg/L]
1 | CC(C)CCC[C@@H]1CC(=O)N[C@@H](CO)C(=O)N[C@H](CC(N)=O)C(=O)N[C@@H](CO)C(=O)NCC(=O)N(C)[C@H](Cc2ccccc2)C(=O)N[C@@H](CC(C)C)C(=O)N[C@H](CCCN)C(=O)N[C@@H](CCC(=O)O)C(=O)N[C@H](CC(N)=O)C(=O)N[C@H](Cc2ccccc2)C(=O)N[C@H](CCCN)C(=O)N(C)[C@@H](C(C)C)C(=O)O1 | ≥ 32 | ≥ 32
2 | CC(C)CCC[C@@H]1CC(=O)N[C@@H](CO)C(=O)N[C@H](CC(N)=O)C(=O)N[C@@H](CO)C(=O)NCC(=O)N(C)[C@H](Cc2ccccc2)C(=O)N[C@@H](CC(C)C)C(=O)N[C@H](CCCN)C(=O)N[C@@H](CCC(=O)O)C(=O)N[C@H](CC(N)=O)C(=O)N[C@H](Cc2ccc(O)cc2)C(=O)N[C@H](CCCN)C(=O)N(C)[C@@H](C(C)C)C(=O)O1 | ≥ 32 | ≥ 32
3 | CC(C)CCC[C@@H]1CC(=O)N[C@@H](CO)C(=O)N[C@H](CC(N)=O)C(=O)N[C@@H](CO)C(=O)NCC(=O)N(C)[C@H](Cc2ccccc2)C(=O)N[C@@H](CC(C)C)C(=O)N[C@H](CCCCN)C(=O)N[C@@H](CCC(=O)O)C(=O)N[C@H](CC(N)=O)C(=O)N[C@H](Cc2c[nH]c3ccccc23)C(=O)N[C@H](CCCN)C(=O)N(C)[C@@H](C(C)C)C(=O)O1 | 1 (≈ 0.641 µM) | 2 (≈ 1.28 µM)
4 | CC(C)CCC[C@@H]1CC(=O)N[C@@H](C)C(=O)N[C@H](CC(N)=O)C(=O)N[C@@H](CO)C(=O)NCC(=O)N(C)[C@H](Cc2ccccc2)C(=O)N[C@@H](CC(C)C)C(=O)N[C@H](CCCN)C(=O)N[C@@H](CCC(=O)O)C(=O)N[C@H](CC(N)=O)C(=O)N[C@H](Cc2c[nH]c3ccccc23)C(=O)N[C@H](CCCN)C(=O)N(C)[C@@H](C(C)C)C(=O)O1 | 2 (≈ 1.31 µM) | 2 (≈ 1.31 µM)
5 | CC(C)CCC[C@@H]1CC(=O)N[C@@H](CO)C(=O)N[C@H]([C@@H](O)C(N)=O)C(=O)N[C@@H](CO)C(=O)NCC(=O)N(C)[C@H](Cc2ccccc2)C(=O)N[C@@H](CC(C)C)C(=O)N[C@H](CCCN)C(=O)N[C@@H](CCC(=O)O)C(=O)N[C@H](CC(N)=O)C(=O)N[C@H](Cc2c[nH]c3ccccc23)C(=O)N[C@H](CCCN)C(=O)N(C)[C@@H](C(C)C)C(=O)O1 | 1 (≈ 0.64 µM) | 1 (≈ 0.64 µM)
6 | CC(C)CCC[C@@H]1CC(=O)N[C@@H](CO)C(=O)N[C@H](CC(N)=O)C(=O)N[C@@H](CO)C(=O)NCC(=O)N(C)[C@H](Cc2ccccc2)C(=O)N[C@@H](CC(C)C)C(=O)N[C@H](CCCN)C(=O)N[C@@H](CCC(=O)O)C(=O)N[C@H](CCCCN)C(=O)N[C@H](Cc2c[nH]c3ccccc23)C(=O)N[C@H](CCCN)C(=O)N(C)[C@@H](C(C)C)C(=O)O1 | 1 (≈ 0.641 µM) | 1 (≈ 0.641 µM)
